This is an account of results in patent publication US20250145633A1, “SUBSTITUTED FURANOPYRIMIDINE COMPOUNDS AS PDE1 INHIBITORS” (Dart NeuroScience, LLC, priority 2017, published 2025).

Bounds are passed on as bounds.

In one test the target is human PDE1B enzyme (Homo sapiens (Human), UniProt Q01064). The test is described as follows: IMAP TR-FRET PDE1B enzymatic assay. It counts as biochemical. To be noted: negative log of half-maximal molar inhibitory concentration; 200 nM FAM-cAMP; values given as bins. A digest of the protocol: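 Full-length GST-tagged human PDE1B (250 pg/well) in IMAP BSA buffer with 10 U/ml calmodulin and 2.5 mM CaCl2; compound pre-incubated 5 min at room temperature, then 200 nM (final) FAM-cAMP for 30 min. IMAP binding reagent/Tb added, 1 h; TR-FRET 520/490 ratio read. IC50 from sigmoidal dose-response fit.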
Background: Time-resolved FRET reads energy transfer from a long-lived donor to a nearby acceptor.
As to `COc1cccc(C2CCN(C(=O)c3c(C)oc4ncnc(NC5(C)CC5)c34)CC2)n1` [Example 422, 5-[4-(6-Methoxypyridin-2-yl)piperidine-1-carbonyl]-6-methyl-N-(1-methylcyclopropyl)furo[2,3-d]pyrimidin-4-amine], the “PDE1b (pIC50)” value is more than 8.

Staying with this test, now noted: negative log of half-maximal molar inhibitory concentration; 200 nM FAM-cAMP; values given as bins; read-out: PDE1b (pIC50) (converted).
`COc1cccc(-c2cnn(C(=O)c3c(C)oc4ncnc(NC5(C)CC5)c34)c2)c1` [Example 412, 5-[4-(3-Methoxyphenyl)-1H-pyrazole-1-carbonyl]-6-methyl-N-(1-methylcyclopropyl)furo[2,3-d]pyrimidin-4-amine]: the IC50 was 10 to 100 nM. On to `Cc1oc2ncnc(NC3(C)CC3)c2c1C(=O)NCC1(C)CC1` [Example 413, 6-Methyl-4-[(1-methylcyclopropyl)amino]-N-[(1-methylcyclopropyl)methyl]furo[2,3-d]pyrimidine-5-carboxamide], for which the IC50 is 10 to 100 nM. Same read-out and setting: the same measure for `Cc1oc2ncnc(NC3(C)CC3)c2c1C(=O)N1CCC(Cc2ccc(F)cc2)C1` (centres unmarked) [Example 414, 5-{3-[(4-Fluorophenyl)methyl]pyrrolidine-1-carbonyl}-6-methyl-N-(1-methylcyclopropyl)furo[2,3-d]pyrimidin-4-amine]: 10 to 100 nM; for `Cc1nn(C(=O)c2c(C)oc3ncnc(NC4(C)CC4)c23)c(C)c1CN1CCOCC1` [Example 415, 5-[3,5-Dimethyl-4-(morpholin-4-ylmethyl)-1H-pyrazole-1-carbonyl]-6-methyl-N-(1-methylcyclopropyl)furo[2,3-d]pyrimidin-4-amine]: 10 to 100 nM. Consider `Cc1oc2ncnc(NC3(C)CC3)c2c1C(=O)Nc1ccn(C)n1` [Example 416, 6-Methyl-N-(1-methyl-1H-pyrazol-3-yl)-4-[(1-methylcyclopropyl)amino]furo[2,3-d]pyrimidine-5-carboxamide], for which the IC50 was 10 to 100 nM. Still for that read-out and setting: as for `Cc1oc2ncnc(NC3(C)CC3)c2c1C(=O)Nc1cnn(C)c1C` [Example 417, N-(1,5-Dimethyl-1H-pyrazol-4-yl)-6-methyl-4-[(1-methylcyclopropyl)amino]furo[2,3-d]pyrimidine-5-carboxamide], the figure is 10 to 100 nM; as for `Cc1nn(C)c(C)c1NC(=O)c1c(C)oc2ncnc(NC3(C)CC3)c12` [Example 418, 6-Methyl-4-[(1-methylcyclopropyl)amino]-N-(trimethyl-1H-pyrazol-4-yl)furo[2,3-d]pyrimidine-5-carboxamide], 10 to 100 nM. Turning to `Cc1oc2ncnc(NC3(C)CC3)c2c1C(=O)Nc1cnn(-c2ccccn2)c1` [Example 419, 6-Methyl-4-[(1-methylcyclopropyl)amino]-N-[1-(pyridin-2-yl)-1H-pyrazol-4-yl]furo[2,3-d]pyrimidine-5-carboxamide], the IC50 is 10 to 100 nM. Still for that read-out and setting: the same measure for `COCCn1nc(C)c(NC(=O)c2c(C)oc3ncnc(NC4(C)CC4)c23)c1C` [Example 420, N-[1-(2-Methoxyethyl)-3,5-dimethyl-1H-pyrazol-4-yl]-6-methyl-4-[(1-methylcyclopropyl)amino]furo[2,3-d]pyrimidine-5-carboxamide]: 10 to 100 nM; for `Cc1oc2ncnc(NC3(C)CC3)c2c1C(=O)Nc1cnn(CCN2CCOCC2)c1` [Example 421, 6-Methyl-4-[(1-methylcyclopropyl)amino]-N-{1-[2-(morpholin-4-yl)ethyl]-1H-pyrazol-4-yl}furo[2,3-d]pyrimidine-5-carboxamide]: 10 to 100 nM; for `COc1cnc(C2CCN(C(=O)c3c(C)oc4ncnc(NC5(C)CC5)c34)CC2)nc1C` [Example 423, 5-[4-(5-Methoxy-4-methylpyrimidin-2-yl)piperidine-1-carbonyl]-6-methyl-N-(1-methylcyclopropyl)furo[2,3-d]pyrimidin-4-amine]: 10 to 100 nM. Still for that read-out and setting: as for `Cc1oc2ncnc(NC3(C)CC3)c2c1C(=O)N1CCc2c(nc(-c3ccc(F)cc3)[nH]c2=O)C1` [Example 424, 2-(4-Fluorophenyl)-7-{6-methyl-4-[(1-methylcyclopropyl)amino]furo[2,3-d]pyrimidine-5-carbonyl}-3H,4H,5H,6H,7H,8H-pyrido[3,4-d]pyrimidin-4-one], the figure is 10 to 100 nM. Still for that read-out and setting: as for `COCc1nc2c(c(=O)[nH]1)CCN(C(=O)c1c(C)oc3ncnc(NC4(C)CC4)c13)C2` [Example 425, 2-(Methoxymethyl)-7-{6-methyl-4-[(1-methylcyclopropyl)amino]furo[2,3-d]pyrimidine-5-carbonyl}-3H,4H,5H,6H,7H,8H-pyrido[3,4-d]pyrimidin-4-one], the figure is 100 to 1000 nM; as for `Cc1cccc(NC(=O)c2c(C)oc3ncnc(NC4(C)CC4)c23)n1` [Example 426, 6-Methyl-4-[(1-methylcyclopropyl)amino]-N-(6-methylpyridin-2-yl)furo[2,3-d]pyrimidine-5-carboxamide], 10 to 100 nM; as for `Cc1ccnc(NC(=O)c2c(C)oc3ncnc(NC4(C)CC4)c23)c1` [Example 427, 6-Methyl-4-[(1-methylcyclopropyl)amino]-N-(4-methylpyridin-2-yl)furo[2,3-d]pyrimidine-5-carboxamide], 100 to 1000 nM. As to `Cc1cccnc1NC(=O)c1c(C)oc2ncnc(NC3(C)CC3)c12` [Example 428, 6-Methyl-4-[(1-methylcyclopropyl)amino]-N-(3-methylpyridin-2-yl)furo[2,3-d]pyrimidine-5-carboxamide], the IC50 is 100 to 1000 nM.

Take `COCCn1cc(NC(=O)c2c(C)oc3ncnc(NC4(C)CC4)c23)cn1` [Example 429, N-[1-(2-Methoxyethyl)-1H-pyrazol-4-yl]-6-methyl-4-[(1-methylcyclopropyl)amino]furo[2,3-d]pyrimidine-5-carboxamide]: the IC50 is 10 to 100 nM. On to `Cc1oc2ncnc(NC3(C)CC3)c2c1C(=O)NC12CC(C1)C2` [Example 430, N-{Bicyclo[1.1.1]pentan-1-yl}-6-methyl-4-[(1-methylcyclopropyl)amino]furo[2,3-d]pyrimidine-5-carboxamide], for which the IC50 was 10 to 100 nM.

For `Cc1oc2ncnc(NC3(C)CC3)c2c1C(=O)N1CCC(c2ncc(C(F)(F)F)cn2)CC1` [Example 431, 6-Methyl-N-(1-methylcyclopropyl)-5-{4-[5-(trifluoromethyl)pyrimidin-2-yl]piperidine-1-carbonyl}furo[2,3-d]pyrimidin-4-amine], the IC50 is 10 to 100 nM. Same read-out and setting: as for `Cc1cn(C)nc1NC(=O)c1c(C)oc2ncnc(NC3(C)CC3)c12` [Example 432, N-(1,4-Dimethyl-1H-pyrazol-3-yl)-6-methyl-4-[(1-methylcyclopropyl)amino]furo[2,3-d]pyrimidine-5-carboxamide], the figure is 10 to 100 nM; as for `Cc1nc(NC(=O)c2c(C)oc3ncnc(NC4(C)CC4)c23)sc1C` [Example 433, N-(Dimethyl-1,3-thiazol-2-yl)-6-methyl-4-[(1-methylcyclopropyl)amino]furo[2,3-d]pyrimidine-5-carboxamide], 10 to 100 nM.

With `Cc1ccc(NC(=O)c2c(C)oc3ncnc(NC4(C)CC4)c23)nn1` [Example 434, 6-Methyl-4-[(1-methylcyclopropyl)amino]-N-(6-methylpyridazin-3-yl)furo[2,3-d]pyrimidine-5-carboxamide], the IC50 was 100 to 1000 nM. The same measure, in the same setting: as for `Cc1oc2ncnc(NC3(C)CC3)c2c1C(=O)Nc1cn(C)cn1` [Example 435, 6-Methyl-N-(1-methyl-1H-imidazol-4-yl)-4-[(1-methylcyclopropyl)amino]furo[2,3-d]pyrimidine-5-carboxamide], the figure is 100 to 1000 nM. On the same count and under the same terms, as for `Cc1nc(NC(=O)c2c(C)oc3ncnc(NC4(C)CC4)c23)ccc1F` [Example 436, N-(5-Fluoro-6-methylpyridin-2-yl)-6-methyl-4-[(1-methylcyclopropyl)amino]furo[2,3-d]pyrimidine-5-carboxamide], the figure is 10 to 100 nM. The same measure, in the same setting: the same measure for `Cc1cncc(NC(=O)c2c(C)oc3ncnc(NC4(C)CC4)c23)n1` [Example 437, 6-Methyl-4-[(1-methylcyclopropyl)amino]-N-(6-methylpyrazin-2-yl)furo[2,3-d]pyrimidine-5-carboxamide]: 100 to 1000 nM. Consider `Cc1ccc(NC(=O)c2c(C)oc3ncnc(NC4(C)CC4)c23)nc1` [Example 438, 6-Methyl-4-[(1-methylcyclopropyl)amino]-N-(5-methylpyridin-2-yl)furo[2,3-d]pyrimidine-5-carboxamide], for which the IC50 is 100 to 1000 nM.

Regarding `Cc1oc2ncnc(NC3(C)CC3)c2c1C(=O)Nc1cc(C)n(C)n1` [Example 439, N-(1,5-Dimethyl-1H-pyrazol-3-yl)-6-methyl-4-[(1-methylcyclopropyl)amino]furo[2,3-d]pyrimidine-5-carboxamide], the IC50 is 100 to 1000 nM. Same read-out and setting: the same measure for `COCCn1ccc(NC(=O)c2c(C)oc3ncnc(NC4(C)CC4)c23)n1` [Example 440, N-[1-(2-Methoxyethyl)-1H-pyrazol-3-yl]-6-methyl-4-[(1-methylcyclopropyl)amino]furo[2,3-d]pyrimidine-5-carboxamide]: 10 to 100 nM. Same read-out and setting: the same measure for `Cc1ncc(NC(=O)c2c(C)oc3ncnc(NC4(C)CC4)c23)nc1C` [Example 441, N-(5,6-Dimethylpyrazin-2-yl)-6-methyl-4-[(1-methylcyclopropyl)amino]furo[2,3-d]pyrimidine-5-carboxamide]: 10 to 100 nM.

Regarding `Cc1nc(NC(=O)c2c(C)oc3ncnc(NC4(C)CC4)c23)oc1C` [Example 442, N-(Dimethyl-1,3-oxazol-2-yl)-6-methyl-4-[(1-methylcyclopropyl)amino]furo[2,3-d]pyrimidine-5-carboxamide], the IC50 is 10 to 100 nM. Regarding `Cc1csc(NC(=O)c2c(C)oc3ncnc(NC4(C)CC4)c23)n1` [Example 443, 6-Methyl-N-(4-methyl-1,3-thiazol-2-yl)-4-[(1-methylcyclopropyl)amino]furo[2,3-d]pyrimidine-5-carboxamide], the IC50 is 10 to 100 nM.
